Test results as given in US10047051B2, “Substituted pyridines and method of use” (AbbVie S.á{acute over (.)}r.l., priority 2015, dated 2018).

Experiments:
CFTR ΔF508 mutant = biological target: T1, CFTR ΔF508 mutant (Homo sapiens, UniProt P13569, DEL508-508); assay: YFP-halide influx assay for the CFTR-ΔF508 mutation (CFBE41o- cells); assay type: cell-based; conditions: forskolin 10.67 μM; for EC50: from (1−F/F0) vs concentration plot
T1 construct: expressed in transfected cells; host or cells: CFBE41o- cells, adenoviral transduction
Text: The YFP halide influx assay measured the functionality of the cystic fibrosis Transmembrane Conductance regulator (CFTR) channels in the cystic fibrosis bronchial epithelium cell line CFBE41o-. The assay was used to evaluate the capacity of compounds to increase the open probability of existing CFTR channels in the membrane. It makes use of the observation that the yellow fluorescent protein (YFP) variant YFP H148Q, I152L, F47L has its fluorescence substantially quenched by halide ions like Cl^− and I^− (Galietta, L. J. V., Haggie, P. M., Verkman, A. S., 2001. Green fluorescent protein-based halide indicators with improved chloride and iodide affinities. FEBS Lett. 499, 220-224. doi:10.1016/S0014-5793(01)02561-3; Nagai, T., Ibata, K., Park, E. S., Kubota, M., Mikoshiba, K., Miyawaki, A., 2002. A variant of yellow fluorescent protein with fast and efficient maturation for cell-biological applications. Nat. Biotechnol. 20, 87-90. doi: 10.1038/nbt0102-87).
For this purpose, CFBE41o-cells were seeded in 384 well plates (3000 CFBE cells/well). One day after seeding, the CFBE cells were transduced with adenoviral vectors that direct the expression of the CFTR ΔF508 mutant and of the YFP reporter. Cells were incubated at 27° C., 5% CO2 for 24 hours so as to allow for the proper folding and migration to the membrane of the CFTR channel or treated with a CFTR modulator during 24 hours at 37° C.
(§1) The I-induced quenching of fluorescence was recorded on an immediately after injection of iodide for 2 minutes on an FDSS/μCell (Hamamatsu). The capacity of a compound to increase the channel opening was directly correlated with the decrease in fluorescence, and was expressed as (1−(fluorescence after 36 seconds (F)/fluorescence before injection (F0))) and an EC50 was derived from a (1−F/F0) vs compound concentration plot.

CFTR G551D mutant = biological target: T2, CFTR G551D mutant (Homo sapiens, UniProt P13569, G551D); assay: YFP-halide influx assay for the CFTR-G551D mutation (HEK293 cells); assay type: cell-based; conditions: forskolin 10.67 μM
T2 construct: expressed in transfected cells; host or cells: HEK293 cells, reverse transfection with plasmids
Text: The YFP halide influx assay measured the functionality of the cystic fibrosis Transmembrane Conductance regulator (CFTR) channels. The assay was used to evaluate the capacity of compounds to increase the channel opening of existing mutant CFTR channels in the membrane. It makes use of the observation that the yellow fluorescent protein (YFP) variant YFP H148Q, I152L, F47L has its fluorescence substantially quenched by halide ions like Cl^− and I^− (Galietta, L. J. V., Haggie, P. M., Verkman, A. S., 2001. Green fluorescent protein-based halide indicators with improved chloride and iodide affinities. FEBS Lett. 499, 220-224. doi:10.1016/S0014-5793(01)02561-3).
For this purpose, HEK293-cells were seeded in 96 well plates. During seeding, the cells were reverse-transfected with plasmid vectors that direct the expression of the CFTR G551D mutant and of the YFP reporter. Cells were incubated at 37° C., 5% CO2 for 24 hours so as to allow for sufficient expression of the CFTR protein.
as §1, with “I^−-induced” for “I-induced”, “recorded” for “recorded on an”, “I^−” for “iodide”, “7 seconds.” for “2 minutes on an FDSS/μCell (Hamamatsu).”, “7” for “36”

T1 sequence (P13569 with tags, fused parts or gaps DEL508-508): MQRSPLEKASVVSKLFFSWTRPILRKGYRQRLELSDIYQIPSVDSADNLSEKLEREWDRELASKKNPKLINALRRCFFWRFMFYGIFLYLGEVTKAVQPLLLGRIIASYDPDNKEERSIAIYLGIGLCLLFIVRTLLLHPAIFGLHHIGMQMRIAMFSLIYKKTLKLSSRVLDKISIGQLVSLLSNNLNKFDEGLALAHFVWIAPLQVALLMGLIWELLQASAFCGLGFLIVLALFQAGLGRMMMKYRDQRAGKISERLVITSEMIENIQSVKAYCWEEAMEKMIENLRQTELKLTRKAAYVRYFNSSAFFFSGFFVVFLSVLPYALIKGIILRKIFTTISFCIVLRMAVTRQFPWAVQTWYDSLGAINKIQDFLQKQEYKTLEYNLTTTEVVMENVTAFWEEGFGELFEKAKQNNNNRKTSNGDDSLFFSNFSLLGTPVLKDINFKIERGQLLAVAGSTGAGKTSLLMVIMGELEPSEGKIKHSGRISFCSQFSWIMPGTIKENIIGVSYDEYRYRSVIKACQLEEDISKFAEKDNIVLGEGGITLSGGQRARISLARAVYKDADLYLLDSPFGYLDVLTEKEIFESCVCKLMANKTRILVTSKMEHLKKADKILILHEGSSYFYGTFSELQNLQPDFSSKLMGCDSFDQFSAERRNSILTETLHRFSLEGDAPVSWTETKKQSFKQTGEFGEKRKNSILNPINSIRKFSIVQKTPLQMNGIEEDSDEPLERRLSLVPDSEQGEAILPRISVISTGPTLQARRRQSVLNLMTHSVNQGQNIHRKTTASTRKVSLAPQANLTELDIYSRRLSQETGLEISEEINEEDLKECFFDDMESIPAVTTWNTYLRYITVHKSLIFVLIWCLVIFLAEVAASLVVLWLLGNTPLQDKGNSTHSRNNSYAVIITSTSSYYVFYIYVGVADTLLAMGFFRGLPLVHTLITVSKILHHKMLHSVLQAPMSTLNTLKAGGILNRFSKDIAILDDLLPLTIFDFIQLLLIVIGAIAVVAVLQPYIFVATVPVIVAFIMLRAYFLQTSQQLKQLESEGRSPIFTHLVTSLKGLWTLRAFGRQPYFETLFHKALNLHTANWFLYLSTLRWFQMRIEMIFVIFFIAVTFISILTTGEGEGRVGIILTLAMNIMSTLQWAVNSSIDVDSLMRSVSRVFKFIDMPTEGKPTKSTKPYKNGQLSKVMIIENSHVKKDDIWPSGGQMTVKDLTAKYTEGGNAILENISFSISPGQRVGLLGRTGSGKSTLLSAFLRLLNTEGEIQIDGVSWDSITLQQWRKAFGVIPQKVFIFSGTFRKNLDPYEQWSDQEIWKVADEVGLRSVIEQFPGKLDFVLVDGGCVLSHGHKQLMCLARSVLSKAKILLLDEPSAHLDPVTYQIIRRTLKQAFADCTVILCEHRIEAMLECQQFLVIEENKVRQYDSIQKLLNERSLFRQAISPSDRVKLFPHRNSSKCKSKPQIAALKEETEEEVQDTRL
T2 sequence (P13569 whole entry G551D): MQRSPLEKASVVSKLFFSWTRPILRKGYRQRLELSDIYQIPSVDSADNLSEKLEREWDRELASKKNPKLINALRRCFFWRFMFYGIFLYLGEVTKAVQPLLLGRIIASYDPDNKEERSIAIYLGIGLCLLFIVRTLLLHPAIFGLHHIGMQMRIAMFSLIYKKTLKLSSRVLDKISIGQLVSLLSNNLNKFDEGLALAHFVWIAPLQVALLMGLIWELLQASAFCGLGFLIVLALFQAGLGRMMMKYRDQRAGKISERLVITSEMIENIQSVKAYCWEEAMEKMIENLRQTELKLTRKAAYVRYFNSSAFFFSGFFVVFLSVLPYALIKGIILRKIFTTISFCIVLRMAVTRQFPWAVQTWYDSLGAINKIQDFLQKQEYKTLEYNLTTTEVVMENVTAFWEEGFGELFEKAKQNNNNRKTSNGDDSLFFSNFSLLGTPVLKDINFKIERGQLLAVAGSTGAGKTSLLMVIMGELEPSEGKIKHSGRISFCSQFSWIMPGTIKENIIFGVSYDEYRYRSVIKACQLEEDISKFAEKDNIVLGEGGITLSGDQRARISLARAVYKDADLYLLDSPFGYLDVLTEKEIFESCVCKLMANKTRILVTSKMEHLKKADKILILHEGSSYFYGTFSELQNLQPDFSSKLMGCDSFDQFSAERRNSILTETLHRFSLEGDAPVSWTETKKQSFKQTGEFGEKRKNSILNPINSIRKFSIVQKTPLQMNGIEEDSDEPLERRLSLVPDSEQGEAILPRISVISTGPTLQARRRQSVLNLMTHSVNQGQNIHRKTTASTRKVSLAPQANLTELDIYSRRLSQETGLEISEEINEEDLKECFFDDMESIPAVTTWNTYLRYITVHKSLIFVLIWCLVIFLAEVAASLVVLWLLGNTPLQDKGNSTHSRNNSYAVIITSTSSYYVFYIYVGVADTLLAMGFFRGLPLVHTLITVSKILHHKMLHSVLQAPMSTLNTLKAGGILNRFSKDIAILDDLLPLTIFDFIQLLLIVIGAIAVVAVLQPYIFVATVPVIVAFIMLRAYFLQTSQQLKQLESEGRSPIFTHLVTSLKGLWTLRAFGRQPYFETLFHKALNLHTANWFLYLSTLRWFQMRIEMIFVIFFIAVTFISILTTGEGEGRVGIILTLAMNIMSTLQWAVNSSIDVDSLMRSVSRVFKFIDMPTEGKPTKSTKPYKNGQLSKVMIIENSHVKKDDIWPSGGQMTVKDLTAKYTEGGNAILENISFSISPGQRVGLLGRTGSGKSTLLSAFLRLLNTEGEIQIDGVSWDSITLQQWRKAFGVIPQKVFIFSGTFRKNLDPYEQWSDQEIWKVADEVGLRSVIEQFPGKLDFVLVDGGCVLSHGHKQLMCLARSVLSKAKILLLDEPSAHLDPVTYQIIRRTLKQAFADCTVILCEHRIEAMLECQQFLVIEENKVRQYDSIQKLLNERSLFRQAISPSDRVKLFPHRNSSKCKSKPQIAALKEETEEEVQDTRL

SMILES | % Activation (CFTR ΔF508 mutant) [%] | EC50 (CFTR ΔF508 mutant) [nM] | % Activation (CFTR G551D mutant) [%] | EC50 (CFTR G551D mutant) [nM]
Nc1cc(S(=O)(=O)N2CCC(F)CC2)cnc1C(=O)NCC(O)C(F)(F)F (centres unmarked) [Compound 195, 3-amino-5-[(4-fluoropiperidin-1-yl)sulfonyl]-N-(3,3,3-trifluoro-2-hydroxypropyl)pyridine-2-carboxamide] | 98.7 | 26.2 | 61.8 | 1250
Nc1cc(S(=O)(=O)c2ccc(OC(F)(F)F)cc2)cnc1C(=O)N1CC[C@@H](F)C1 [Compound 204, (3-amino-5-{[4-(trifluoromethoxy)phenyl]sulfonyl}pyridin-2-yl)[(3R)-3-fluoropyrrolidin-1-yl]methanone] | 92.5 | 177 | 73.9 | > 3330
CC(C)S(=O)(=O)c1cc(N)c(C(=O)NC[C@H](C)O)nc1-c1ccc(F)cc1 [Compound 264, 3-amino-6-(4-fluorophenyl)-N-[(2S)-2-hydroxypropyl]-5-(propan-2-ylsulfonyl)pyridine-2-carboxamide] | 76.0 | 213 | 6.51 | 2000
Nc1cc(S(=O)(=O)c2ccc(OC(F)(F)F)cc2)cnc1C(=O)N1CCC1 [Compound 65, (3-amino-5-{[4-(trifluoromethoxy)phenyl]sulfonyl}pyridin-2-yl)(azetidin-1-yl)methanone] | 119.0 | 41.4 | 67.8 | 1160
CC(C)NC(=O)CNC(=O)c1ncc(S(=O)(=O)N2CCC[C@@H]2C)cc1N [Compound 270, 3-amino-5-{[(2S)-2-methylpyrrolidin-1-yl]sulfonyl}-N-[2-oxo-2-(propan-2-ylamino)ethyl]pyridine-2-carboxamide] | 100.0 | 143 | 23.8 | > 10000
Nc1cc(S(=O)(=O)c2ccc(C(F)(F)F)cc2F)cnc1C(=O)NC[C@H]1CCOC1 [Compound 106, 3-amino-5-{[2-fluoro-4-(trifluoromethyl)phenyl]sulfonyl}-N-[(3R)-tetrahydrofuran-3-ylmethyl]pyridine-2-carboxamide] | 99.0 | 19.5 | 42.4 | > 3330
CN(CCC(F)(F)F)S(=O)(=O)c1cnc(C(=O)NCC(O)C(F)(F)F)c(N)c1 (centres unmarked) [Compound 225, 3-amino-5-[methyl(3,3,3-trifluoropropyl)sulfamoyl]-N-(3,3,3-trifluoro-2-hydroxypropyl)pyridine-2-carboxamide] | 106.7 | 30.9 | 44.2 | 2210
Nc1cc(S(=O)(=O)c2ccc(OC(F)(F)F)cc2)cnc1C(=O)NC1CCOCC1 [Compound 146, 3-amino-N-(tetrahydro-2H-pyran-4-yl)-5-{[4-(trifluoromethoxy)phenyl]sulfonyl}pyridine-2-carboxamide] | 88.4 | 91.4 | 58.4 | 3110
Nc1cc(S(=O)(=O)c2ccc(OC(F)(F)F)cc2)cnc1C(=O)N[C@H]1CCOC1 [Compound 144, 3-amino-N-[(3S)-tetrahydrofuran-3-yl]-5-{[4-(trifluoromethoxy)phenyl]sulfonyl}pyridine-2-carboxamide] | 92.6 | 76.1 | 50.6 | 1120
Nc1cc(S(=O)(=O)CC2CCCO2)cnc1C(=O)NCC(O)C(F)(F)F (centres unmarked) [Compound 238, 3-amino-5-[(tetrahydrofuran-2-ylmethyl)sulfonyl]-N-(3,3,3-trifluoro-2-hydroxypropyl)pyridine-2-carboxamide] | 53.7 | 538 | 4.8 | > 10000
Nc1cc(S(=O)(=O)c2ccc(OC(F)(F)F)cc2)cnc1C(=O)NC1COC2(CCCC2)C1 (centres unmarked) [Compound 150, 3-amino-N-(1-oxaspiro[4.4]non-3-yl)-5-{[4-(trifluoromethoxy)phenyl]sulfonyl}pyridine-2-carboxamide] | 116.0 | 355 | 49.7 | 1070
CC(C)(O)CCNC(=O)c1ncc(S(=O)(=O)c2ccc(OC(F)(F)F)cc2)cc1N [Compound 51, 3-amino-N-(3-hydroxy-3-methylbutyl)-5-{[4-(trifluoromethoxy)phenyl]sulfonyl}pyridine-2-carboxamide] | 96.8 | 30.2 | 51.2 | 1130
COCCNC(=O)c1ncc(S(=O)(=O)c2ccc(C(F)(F)F)cc2)cc1N [Compound 202, 3-amino-N-(2-methoxyethyl)-5-{[4-(trifluoromethyl)phenyl]sulfonyl}pyridine-2-carboxamide] | 97.6 | 45.5 | 45.1 | 1600

Now those with a lower EC50 (CFTR ΔF508 mutant), led by results:

% Activation (CFTR ΔF508 mutant) [%] | EC50 (CFTR ΔF508 mutant) [nM] | % Activation (CFTR G551D mutant) [%] | EC50 (CFTR G551D mutant) [nM] | SMILES
102.0 | 11.9 | 67.5 | 997 | CC(C)CC(O)CNC(=O)c1ncc(S(=O)(=O)c2ccc(OC(F)(F)F)cc2)cc1N (centres unmarked) [Compound 87, 3-amino-N-(2-hydroxy-4-methylpentyl)-5-{[4-(trifluoromethoxy)phenyl]sulfonyl}pyridine-2-carboxamide]
107.0 | 7.8 | 75.2 | 756 | Nc1cc(S(=O)(=O)N2CCC(OC(F)(F)F)CC2)cnc1C(=O)NCC(O)C(F)(F)F (centres unmarked) [Compound 198, 3-amino-N-(3,3,3-trifluoro-2-hydroxypropyl)-5-{[4-(trifluoromethoxy)piperidin-1-yl]sulfonyl}pyridine-2-carboxamide]
112.7 | 4.7 | 51.3 | 645 | CC1CCCN(S(=O)(=O)c2cnc(C(=O)NCC(O)C(F)(F)F)c(N)c2)C1 (centres unmarked) [Compound 182, 3-amino-5-[(3-methylpiperidin-1-yl)sulfonyl]-N-(3,3,3-trifluoro-2-hydroxypropyl)pyridine-2-carboxamide]
111.0 | 6.9 | 69.5 | > 3330 | C[C@H](O)CNC(=O)c1nc(C2CC2)c(S(=O)(=O)c2ccc(F)cc2)cc1N [Compound 274, 3-amino-6-cyclopropyl-5-[(4-fluorophenyl)sulfonyl]-N-[(2S)-2-hydroxypropyl]pyridine-2-carboxamide]
113.7 | 2.9 | 53.4 | > 3330 | CN(Cc1ccc(F)c(F)c1)S(=O)(=O)c1cnc(C(=O)NCC(O)C(F)(F)F)c(N)c1 (centres unmarked) [Compound 136, 3-amino-5-[(3,4-difluorobenzyl)(methyl)sulfamoyl]-N-(3,3,3-trifluoro-2-hydroxypropyl)pyridine-2-carboxamide]
113.0 | 1.7 | 57.2 | 662 | Nc1cc(S(=O)(=O)c2ccc(OC(F)(F)F)cc2)cnc1C(=O)NCC(O)C(F)F (centres unmarked) [Compound 279, 3-amino-N-(3,3-difluoro-2-hydroxypropyl)-5-{[4-(trifluoromethoxy)phenyl]sulfonyl}pyridine-2-carboxamide]
106.0 | 12.5 | 60.8 | 1550 | Nc1cc(S(=O)(=O)c2ccc(OC(F)(F)F)cc2)cnc1C(=O)N1CC(CO)C1 [Compound 66, (3-amino-5-{[4-(trifluoromethoxy)phenyl]sulfonyl}pyridin-2-yl)[3-(hydroxymethyl)azetidin-1-yl]methanone]
